Reference: US6136835A (priority 1999, dated 2000)
Where “and” joins values, the source holds several entries; their conditions need not be identical. Equal values may be shown once. Read-outs that look alike come from different tables or passages of the source.

Legend:
murine melanoma (B16) = settings: for % Increase in survival time relative to control (100%) / Survivors in cancer model: mouse, in vivo
Protocol: In an in vivo mouse model for murine melanoma (B16) fluconazole was tested alone and in combination with adriamycin (doxorubicin) at various doses.

[1] = test system: human influenza virus, strain AT2/Taiwan/1/64; test: Anti viral evaluation with human influenza virus in mice; assay type: in vivo; settings: 21 days observation, virus dose ~90% lethality
Rhinovirus = settings: in vivo Rhinovirus
[2] = test system: solid tumors removed from patients; test: In Vitro Human Tumor Colony Forming Units Test; assay type: cell-based; settings: for effective against tumors (number of tumors): continuous exposure or single dose experiment
Protocol: (§1) Solid tumors removed from patients are minced into 2 to 5 mm fragments and immediately placed in McCoy's Medium 5A plus 10% heat inactivated newborn calf serum lus 1% penicillin/streptomycin. Within 4 hours, these solid tumors are mechanically disassociated with scissors, forced through No. 100 stainless steel mesh, through 25 gauge needles, and then washed with McCoys medium as described above. Ascitic, pleural, pericardial fluids and bone marrow are obtained by standard techniques. The fluid or marrow is placed in sterile containers containing 10 units of preservative free heparin per ml. of malignant fluid or marrow. After centrifugation at 150× g for 10 minutes, the cells are harvested and washed with McCoy's medium plus 10% heat inactivated calf serum. The viability of cell suspensions is determined on a hemocytometer with trypan blue.
Cells to be cloned are suspended in 0.3% agar in enriched CMRL1066 supplemented with 15% heat inactivated horse serum, penicillin (100 units/ml), streptomycin ([…]), glutamine (2 mM ), insulin (3 units/ml), asparagine (0.6 mg/ml), and HEPES buffer (2 mM ). For the continuous exposure test each compound is added to the above mixture. Cells are placed in 35 mm petri dishes in a top layer of agar over an underlayer of agar to prevent growth of fibroblasts. Three plates are prepared for each data point. The plates are placed in a 37° C. incubator, and are removed on day 14 for counting of the number of colonies in each plate. The number of colonies (defined as 50 cells) formed in the 3 compound treated plates is compared to the number of colonies formed in the 3 control plates, and the percent colonies surviving at the concentration of compound can be tabulated. Three positive control plates are used to determine survival rate. Orthosodium vanadate at 200 μg/ml is used as the positive control. If there is <30% cells in the positive control when compared to the untreated control, the test is evaluated. […]

[3] = test system: lung, non-small cell cancer; test: In Vitro Human Tumor Colony Forming Units Test, lung, non-small cell; assay type: cell-based; settings: 50.0 μg/ml, continuous exposure
Protocol: as §1
(§2) Cells to be cloned are suspended in 0.3% agar in enriched CMRL1066 supplemented with 15% heat inactivated horse serum, penicillin (100 units/ml), streptomycin ([…]), glutamine (2 mM ), insulin (3 units/ml), asparagine (0.6 mg/ml), and HEPES buffer (2 mM ). For the continuous exposure test each compound is added to the above mixture. […] If there is <30% cells in the positive control when compared to the untreated control, the test is evaluated. […]

ovarian cancer = test: In Vitro Human Tumor Colony Forming Units Test, ovarian; assay type: cell-based; settings: 50.0 μg/ml, continuous exposure
Protocol: as §1, §2

influenza = test: in vitro model for influenza
chronic hepatitis C = settings: interferon with or without ribavarin; cited from earlier work

COc1cccc2c1C(=O)c1c(O)c3c(c(O)c1C2=O)C[C@@](O)(C(=O)CO)C[C@@H]3O[C@H]1C[C@H](N)[C@H](O)[C@H](C)O1 [Adriamycin]
Toxic deaths (murine melanoma (B16); fluconazole 0, adriamycin 2 mg/kg): 0
Toxic deaths (murine melanoma (B16); fluconazole 0, adriamycin 3 mg/kg): 0
Toxic deaths (murine melanoma (B16); fluconazole 0, adriamycin 4 mg/kg): 0
% Increase in survival time relative to control (100%) (murine melanoma (B16)): cures occurred
Survivors in cancer model (murine melanoma (B16)): 6/10 and 8/10 and 10/10

NC12CC3CC(CC(C3)C1)C2 [Amantadine]
Percent Mortality ([1]; 75 mg/kg oral): 0%

OC(Cn1cncn1)(Cn1cncn1)c1ccc(F)cc1F [Fluconazole, 2-(2,4-difluorophenyl)-1,3-bis(1H-1,2,4-triazol-1-yl)propan-2-ol]
Percent Mortality ([1]; 350 mg/kg oral): 0%
Percent Mortality ([1]; 700 mg/kg oral): 30%
activity in screening test (Rhinovirus): Nor was it active
effective against tumors (number of tumors) ([2]; 0.5 μg/ml): 0/3
effective against tumors (number of tumors) ([2]; 5.0 μg/ml): 0/13
tumors with <50% survival (over all) ([2]; 50.0 μg/ml, continuous exposure): 4/13
effectiveness against lung, non-small cell cancer [3]: effective
effectiveness against ovarian cancer (ovarian cancer): effective
Toxic deaths (murine melanoma (B16); fluconazole 175 mg/kg, adriamycin 0): 0
Toxic deaths (murine melanoma (B16); fluconazole 350 mg/kg, adriamycin 0): 0
Toxic deaths (murine melanoma (B16); fluconazole 700 mg/kg, adriamycin 0): 0
% Increase in survival time relative to control (100%) (murine melanoma (B16)): 120% and 116% and 117%
Survivors in cancer model (murine melanoma (B16)): 0
activity in an in vitro model for influenza (influenza): did not show activity

interferon
response rate (chronic hepatitis C): about 25%
